Test results taken from patent publication US8022075B2, “Diagnostic and remedy for disease caused by amyloid aggregation and/or deposition” (Fujifilm Ri Pharma Co., Ltd., priority 2005, dated 2011).

What was measured:
[1] = Distribution in rat body (radioactivity in the brain); assay type: in vivo, Wistar male rats; settings: caudal vein
Method: Wistar male rats (purchased from Japan SLC, Inc.) were conditioned for seven days, maintaining water and chow (commercial solid chow: F-2, product of Funabashi Farm) ad libitum, and the non-fasting rats were employed in the experiment (8-week-old at experiment).
Each of compound 23, compound 24, and [^125I]-IMPY was dissolved in a solution containing 40 mM ascorbic acid and 0.1% Tween80, to thereby adjust the concentration to 100 μCi/200 μL. Each sample was administered to each rat through the caudal vein under non-anesthetization. […] The brain was cut into the left and right parts, and each part was weighed. The right brain was placed in a vial, and radioactivity was measured by means of a gamma counter. The radioactivity relative to the administration amount was calculated. Specifically, radioactivity of the tissue and that divided by the tissue weight were calculated as % I.D. and % I.D./g-tissue weight, respectively.

[2] = Analysis of radioactive substance in the rat brain after administration (TLC); assay type: in vivo; settings: rat brain homogenate 2 to 120 minutes after administration (FIG. 5)
Method: Compounds which had been incorporated into the rat brain were investigated. The left part of the rat brain, obtained in the above experiment (distribution in the rat body) was homogenized by means of a Potter-type homogenizer with 40-mmol/L ascorbic acid-containing PBS (4-fold amount by mass). Acetonitrile (4-fold volume with respect to homogenate) was added to the homogenate, and the mixture was filtered, to thereby remove protein. The acetonitrile layer was developed by means of a reverse phase TLC (Whatman KC18F). The TLC was brought into contact with an imaging plate, and radioactivity was detected by means of BAS-1800 (product of Fuji Film Co., Ltd.). Each of the brain homogenate obtained 2, 5, 40, 60, and 120 minutes after administration was treated with acetonitrile so as to remove protein, and extracted radioactive substances were analyzed through thin-layer chromatography (KC18F, Whatman).

[3] = In vitro metabolism rate by use of liver microsomes, mouse; assay type: in vitro ADME, Male CD1 mouse
Method: (§1) Liver microsomes (Pooled human Liver Microsomes, Male CD1 mouse, Male Wistar Rat), which is a commercial product of In Vitro Technologies, were employed.
(§2) Each of compound 23, compound 24, and [^125I]-IMPY was dissolved in Milli Q water, to thereby adjust the concentration to 11 μCi/mL (5 nmol/L).
(§3) To a mixture of 100 mM glucose 6-phosphate and […] NADPH solution, an equal volume of […] magnesium chloride was added. Glucose 6-phosphate dehydrogenase was employed at a final concentration of 10 unit/mL. These components were reconstituted upon use.
(§4) Method: To each of the glass test tubes, […] EDTA/0.33M potassium phosphate buffer (150 μL), Milli Q water (200 μL), 0.005 or 0.5 mg protein/mL microsome suspension (50 μL), and a test substance solution (50 μL) were added. The mixture was preliminarily incubated at 37° C. for two minutes. The above-prepared NADPH-generating system (50 μL) was added, to thereby initiate reaction. At an arbitrary point of time, an equal volume of acetonitrile was added, to thereby terminate the reaction. The reaction mixture (50 μL) was sampled into a glass tube for determining the metabolism amount, and saturated ascorbic acid ethanol solution (25 μL) was added thereto. The sample was developed by means of a reverse phase TLC (Whatman KC18F) with 80% methanol. The TLC was brought into contact with an imaging plate, and radioactivity was detected by means of BAS-1800 (product of Fuji Film Co., Ltd.). The metabolism rate was calculated through analysis by means of GraphPad Prism Ver. 4.00 (GraphPad Software, Inc.).

[4] = In vitro metabolism rate by use of liver microsomes, rat; assay type: in vitro ADME, Male Wistar Rat
Method: as §1, §2, §3, §4

[5] = In vitro metabolism rate by use of liver microsomes, human; assay type: in vitro ADME
Method: as §1, §2, §3, §4

## CN(C)c1ccc(-c2cn3cc([125I])ccc3n2)cc1 [^125I-IMPY, reference compound]
[1]; 2 min after administration
  Radioactivity in the rat brain Mean ± SD: 1.110 ± 0.027 % I.D./g
[1]; 5 min after administration
  Radioactivity in the rat brain Mean ± SD: 0.713 ± 0.098 % I.D./g
[1]; 15 min after administration
  Radioactivity in the rat brain Mean ± SD: 0.337 ± 0.019 % I.D./g
[1]; 30 min after administration
  Radioactivity in the rat brain Mean ± SD: 0.144 ± 0.021 % I.D./g
[1]; 60 min after administration
  Radioactivity in the rat brain Mean ± SD: 0.065 ± 0.002 % I.D./g
[1]; 120 min after administration
  Radioactivity in the rat brain Mean ± SD: 0.027 ± 0.001 % I.D./g
[2]
  Metabolites in the brain (TLC of extracted radioactive substance): provided a plurality of metabolites in the brain
[3]
  Rate of metabolism by liver microsomes: 0.911 ± 0.331 pmol/min/mg protein
[4]
  Rate of metabolism by liver microsomes: 2.164 ± 0.647 pmol/min/mg protein
[5]
  Rate of metabolism by liver microsomes: 0.510 ± 0.137 pmol/min/mg protein
